Publication PMC11866022, “Long-Chain Cyclic Arylguanidines as Multifunctional Serotonin Receptor Ligands with Antiproliferative Activity” (ACS Omega, 2025)
“And” between values parts separate entries of the source, which are not always exact repeats. Equal values may be shown once.

Assays:
5-HT6 = target: T1, 5-HT6 (Homo sapiens, UniProt P50406); assay: Radioligand binding assay, 5-HT6 ([3H]-LSD); settings: HEK293 cell line with human 5-HT6R; 2 nM [3H]-LSD
T1 construct: expressed in transfected cells; host or cells: HEK293
Procedure: Ligand affinity for 5-HT6 receptors was subsequently tested with a radioligand binding assay, using the HEK293 cell line with human 5-HT6R, aiming to select compounds with the strongest affinity. Three compounds belonging to 2-naphthalenesulfonamide derivatives of 3,4-dihydroquinazolin-2-amines were obtained (Table 1).
(§1) The detailed procedure is presented in previous publications.[53] Assays were performed by incubating for 1 h at 37 °C (room temperature for 5-HT1A) in 200 μL volumes on 96-well plates. The reaction was terminated by rapid filtration using Unifilter plates, and radioactivity on the filters was measured with a PerkinElmer Microbeta plate reader. Radioligands used were:
(§2) Eight concentrations (10^–4 to 10^–11 M) were tested in triplicate for each compound. Inhibition constants (Ki) were calculated using the Cheng–Prusoff equation.[54] The results are expressed as the means of at least two independent experiments.

D2 = target: T2, D2 (Homo sapiens, UniProt P14416); assay: Radioligand binding assay, D2 ([3H]-raclopride); settings: Table 3, unit inferred; 2.5 nM [3H]-raclopride
T2 construct: expressed in transfected cells; host or cells: HEK293
Procedure: (§3) Their functional activity was also evaluated by assessing their ability to inhibit agonist-induced cAMP production in HEK293 cells (Table 3). Extended radioisotope tests were aimed at detecting potential affinity for other aminergic receptors, whose role in cancer treatment may be important. Functions were tested for all receptors. The essence of functional tests results from the fact that serotonin stimulates tumor progression. Therefore, the ligand should have the potential to reduce its concentration, i.e., act as an antagonist.[39]
as §1
D2: 2.5 nM [^3H]-raclopride
as §2

5-HT7 = target: T3, 5-HT7 (Homo sapiens, UniProt P34969); assay: Radioligand binding assay, 5-HT7 ([3H]-5-CT); settings: Table 3, unit inferred; 0.8 nM [3H]-5-CT
T3 construct: expressed in transfected cells; host or cells: HEK293
Procedure: as §3, §1, §2

1321N1 astrocytoma cells = assay: Antiproliferative activity (MTS), 1321N1; type: cell-based, human; settings: Homo sapiens, 1321-N1; MTS assay
Procedure: (§4) These cell lines were characterized by different mutation profiles, the main one being the variable status of the p53 protein. In detail, U87MG cells have a wild-type p53 protein, while astrocytoma and the rest of GBM cells harbor mutated p53 protein. Additional assays were performed on MCF7 breast cancer and AsPC-1 pancreatic cancer cells. The wide range of tested lines was aimed at screening the anticancer potential of the tested compounds. The first represents one of the most common and the second one of the most aggressive cancers in the world. Comparing the activity of compounds on GBM cells to other types of cancer may reveal their selectivity and usefulness in targeted therapies. The cytotoxicity of the compounds on normal human astrocytes (NHA) and Feline catus astrocyte (PG-4) was determined. Tests on normal lines serve to verify the potential toxicity of the tested compounds on healthy cells. Due to the targeting of CNS tumors, astrocytes were selected as normal lines.
The detailed procedure is presented in previous publications.[53] […] Cells were cultured in appropriate media, supplemented with FBS, antibiotics, and other supplements, and incubated at 37 °C with 5% CO2. […] Cell viability was assessed using the MTS assay, and the inhibitory concentration (IC50) was calculated using GraphPad Prism 8.0. Each compound was tested in triplicate across multiple experiments.
Supplementary materials - Biological research […]

[1] = target: T4, human serum albumin (HSA) (Homo sapiens, UniProt P02768); assay: HSA binding by biochromatography (HSA column); type: in vitro ADME; settings: HSA column
T4 construct: purchased
Procedure: Lipophilicity and affinity for phospholipids for each investigated molecule were assessed. Additionally, selected compounds with the highest biological activities have been characterized by their affinity plasma proteins. All experiments were performed using protocols developed by Valko.[35] These methods facilitated the calculation of chromatographic hydrophobicity indices (CHI) and plasma protein binding percentages (%PPB) in a biochromatographic experiment, with results compared to the reference. A detailed description of the experiments is provided in the Supporting Information (SI), along with the raw data. […] Although high lipophilicity may limit the medical use of the analyzed compounds since they may tend to accumulate excessively in the human body, it is remarkable that several clinically used drugs also have high lipophilicity. […] (Table 5).
The detailed procedure is presented in previous publications.[53] High-performance liquid chromatography (HPLC) analyses were conducted using the Prominence-1 LC-2030C 3D system (Shimadzu) with a DAD detector, employing three different chromatographic columns with specific stationary phases and mobile phases. The analysis was performed at 30 °C with a flow rate of 1.5 mL/min for IAM and C18 columns, and 0.9 mL/min for the Chiralpak column. Calibration standards for the columns were sourced from various suppliers and dissolved in dimethyl sulfoxide. Detection occurred in the UV range (190–300 nm) with a 5 μL injection volume. Each compound was analyzed in triplicate. Retention times for the tested compounds and calibration standards are provided in the Supporting Information (Tables S1 and S2).

[2] = system: normal human astrocytes (NHA); assay: Cytotoxicity (MTS), normal human astrocytes; type: cell-based; settings: for IC50: Homo sapiens, Astrocyte, 72 h, normal human astrocytes, MTS assay
Procedure: as §4, with “The chosen group of ligands was further examined for their ability to inhibit proliferation across multiple cancer cell lines related to the CNS system (1321N1, U87MG, LN-229, and U-251). These” for “These”
The detailed procedure is presented in previous publications.[53] Briefly, the study utilized various human cancer and normal cell lines, including LN-229 (glioblastoma), MCF7 (breast carcinoma), HepG2 (hepatoma), U-251 (glioblastoma), U87MG (glioblastoma), AsPC-1 (pancreatic adenocarcinoma), and NHA (normal human astrocytes). Cells were cultured in appropriate media, supplemented with FBS, antibiotics, and other supplements, and incubated at 37 °C with 5% CO2. Compounds were dissolved in DMSO, prepared at various concentrations (1–25 μM), and applied to the cells for 72 h. Cell viability was assessed using the MTS assay, and the inhibitory concentration (IC50) was calculated using GraphPad Prism 8.0. Each compound was tested in triplicate across multiple experiments.

T3 sequence (P34969 whole entry, species assumed): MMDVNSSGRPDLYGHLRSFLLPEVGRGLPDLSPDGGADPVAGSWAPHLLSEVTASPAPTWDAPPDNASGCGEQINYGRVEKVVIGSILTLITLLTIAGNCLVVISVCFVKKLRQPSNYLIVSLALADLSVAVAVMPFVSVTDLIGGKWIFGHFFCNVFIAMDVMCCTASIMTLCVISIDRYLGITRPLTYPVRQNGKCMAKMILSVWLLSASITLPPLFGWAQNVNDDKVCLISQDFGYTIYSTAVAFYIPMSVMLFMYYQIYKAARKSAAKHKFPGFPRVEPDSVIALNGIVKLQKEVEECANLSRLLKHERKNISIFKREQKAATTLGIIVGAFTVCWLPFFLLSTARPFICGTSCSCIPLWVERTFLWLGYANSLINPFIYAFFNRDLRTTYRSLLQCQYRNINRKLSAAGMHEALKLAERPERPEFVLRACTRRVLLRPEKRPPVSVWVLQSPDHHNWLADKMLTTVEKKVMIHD
T1 sequence (P50406 whole entry): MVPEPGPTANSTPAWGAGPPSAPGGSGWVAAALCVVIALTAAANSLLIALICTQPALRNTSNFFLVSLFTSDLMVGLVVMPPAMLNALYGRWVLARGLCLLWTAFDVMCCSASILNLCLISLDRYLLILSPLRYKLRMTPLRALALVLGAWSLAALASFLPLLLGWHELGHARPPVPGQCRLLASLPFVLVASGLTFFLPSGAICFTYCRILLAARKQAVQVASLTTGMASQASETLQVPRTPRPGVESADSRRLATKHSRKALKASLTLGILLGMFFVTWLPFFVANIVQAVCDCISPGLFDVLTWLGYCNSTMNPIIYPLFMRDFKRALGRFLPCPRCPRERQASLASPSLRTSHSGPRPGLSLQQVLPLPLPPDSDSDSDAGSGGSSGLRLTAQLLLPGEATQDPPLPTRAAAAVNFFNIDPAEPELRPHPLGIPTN
T2 sequence (P14416 whole entry): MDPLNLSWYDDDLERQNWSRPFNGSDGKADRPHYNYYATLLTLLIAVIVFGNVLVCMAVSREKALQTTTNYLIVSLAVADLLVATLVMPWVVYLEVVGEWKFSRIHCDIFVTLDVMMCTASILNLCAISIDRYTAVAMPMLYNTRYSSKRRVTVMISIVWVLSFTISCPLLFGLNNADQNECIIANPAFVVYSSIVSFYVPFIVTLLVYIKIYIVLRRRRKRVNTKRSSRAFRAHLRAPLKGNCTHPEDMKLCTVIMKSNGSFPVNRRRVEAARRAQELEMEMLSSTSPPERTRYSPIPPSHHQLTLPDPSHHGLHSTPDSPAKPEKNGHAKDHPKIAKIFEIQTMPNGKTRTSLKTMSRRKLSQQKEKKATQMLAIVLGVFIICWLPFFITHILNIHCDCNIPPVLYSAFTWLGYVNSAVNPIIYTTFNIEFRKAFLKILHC
T4 sequence (P02768 25-609): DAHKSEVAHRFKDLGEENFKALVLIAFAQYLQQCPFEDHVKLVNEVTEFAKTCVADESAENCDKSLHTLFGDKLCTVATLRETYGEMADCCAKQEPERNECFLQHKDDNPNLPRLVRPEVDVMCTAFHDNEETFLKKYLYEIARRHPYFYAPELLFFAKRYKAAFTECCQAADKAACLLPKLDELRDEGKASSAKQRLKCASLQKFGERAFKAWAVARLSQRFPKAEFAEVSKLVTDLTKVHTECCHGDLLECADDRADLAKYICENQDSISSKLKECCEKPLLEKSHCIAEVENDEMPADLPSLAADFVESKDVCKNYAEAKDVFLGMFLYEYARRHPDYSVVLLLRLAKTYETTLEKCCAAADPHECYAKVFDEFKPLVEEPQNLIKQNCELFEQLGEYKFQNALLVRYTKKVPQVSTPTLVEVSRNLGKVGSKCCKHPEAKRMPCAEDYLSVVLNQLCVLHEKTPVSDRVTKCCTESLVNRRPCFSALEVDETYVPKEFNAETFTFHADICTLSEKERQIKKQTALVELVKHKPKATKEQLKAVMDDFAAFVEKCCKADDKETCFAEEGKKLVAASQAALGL

Ki (5-HT6)	IC50 (1321N1 astrocytoma cells)	%HSA [1]	Structure (SMILES)	Ki (D2)	Ki (5-HT7)	logKHSA [1]	IC50 [2]	selectivity index ([2]; normal astrocytes versus cancer cell lines)
109 ± 27 nM	20900 ± 1400 nM	97.2%	O=S(=O)(c1cccc2ccccc12)N1CCN(CCNC2=Nc3ccccc3CN2)CC1 [PP 6, N-{2-[4-(Naphthalene-1-sulfonyl)piperazin-1-yl]ethyl}-3,4-dihydroquinazolin-2-amine]	7430 nM	2400 nM	1.41 and 1.4	–	–
272 ± 68 nM	8400 ± 1900 nM	98.8%	O=S1(=O)c2cccc3cccc(c23)N1CCCCCCNC1=Nc2ccccc2CN1 [PP 24, 3-{6-[(3,4-Dihydroquinazolin-2-yl)amino]hexyl}-2λ^6-thia-3-azatricyclo[6.3.1.0^4,^12]dodeca-1(11),4(12),5,7,9-pentaene-2,2-dione]	–	–	1.65 and 1.6	7900 ± 400 nM	below 1

The remaining lines, values behind:

Structure (SMILES)	Ki (5-HT6)	IC50 (1321N1 astrocytoma cells)	%HSA [1]	Ki (D2)	Ki (5-HT7)	logKHSA [1]	IC50 [2]	selectivity index ([2]; normal astrocytes versus cancer cell lines)
CC1NC(NCCCCCCNS(=O)(=O)c2cccc3ccccc23)=Nc2ccccc21 (stereo not shown) [PP 10, N-{6-[(4-Methyl-3,4-dihydroquinazolin-2-yl)amino]hexyl}naphthalene-1-sulfonamide]	96 ± 22 nM	13400 ± 800 nM	97.7%	2930 nM	189 nM	1.47 and 1.5	12600 ± 400 nM	–
CC1NC(NCCCCCCNS(=O)(=O)c2c(Cl)ccc3ccccc23)=Nc2ccccc21 (stereo not shown) [PP 13, 2-Chloro-N-{6-[(4-methyl-3,4-dihydroquinazolin-2-yl)amino]hexyl}naphthalene-1-sulfonamide]	69 ± 17 nM	9600 ± 1800 nM	>99.8%	1900 nM	198 nM	–	4200 ± 400 nM	–
O=S(=O)(NCCCCCCNc1ncc2ccccc2n1)c1cccc2ccccc12 [PP 15, N-{6-[(Quinazolin-2-yl)amino]hexyl}naphthalene-1-sulfonamide]	42 ± 11 nM	> 25000 nM	97.8%	71800 nM	1560 nM	1.48 and 1.5	–	–
